Experimental data published in patent US9238715B2, “Polymerizable composition for ophthalmic and medical use and antimicrobial composition obtained by polymerizing the polymerizable composition” (NANYANG TECHNOLOGICAL UNIVERSITY, priority 2010, dated 2016).

Legend:
Test in all cases: MIC by microtiter dilution in Mueller Hinton Broth
Settings in all cases: 5×10^5 CFU/ml, 37° C., 18 hours, A600
[1] = test system: E. Coli; format: cell-based, Escherichia coli
Procedure: (§1) Minimal inhibitory concentrations (MIC) were determined by a standard microtiter dilution method in Mueller Hinton Broth (MHB) medium. Bacteria cells were grown overnight at 37° C. in MHB medium and diluted to a bacteria concentration of 10^6 colony forming units (CFU)/ml. The bacteria concentration was adjusted to 5×10^5 CFU/ml by adding 100 μl of a suspension of the bacteria cultured under the above conditions to 100 μl of a polylysine aqueous solution diluted to 10^3 to 1 μg/ml, and samples were prepared. The samples were incubated at 37° C. for 18 hours, and the MICs (lowest polylysine concentration that inhibited cell growth) after 18 hours were determined.

[2] = test system: F. solani; format: cell-based, Fusarium solani
Procedure: as §1

[3] = test system: P. aeruginosa; format: cell-based, Pseudomonas aeruginosa
Procedure: as §1

[4] = test system: C. albicans; format: cell-based, Candida albicans
Procedure: as §1

[5] = test system: S. marcescence; format: cell-based, Serratia marcescens
Procedure: as §1

[6] = test system: S. aureus; format: cell-based, Staphylococcus aureus
Procedure: as §1

Substance: epsilon-polylysine [EPL]
- MIC [1]: 7.8 µg/mL
- MIC [2]: 109 µg/mL
- MIC [3]: 7.8 µg/mL
- MIC [4]: 54 µg/mL
- MIC [5]: 15.6 µg/mL
- MIC [6]: 7.8 µg/mL

Substance: methacrylated epsilon-polylysine [MA-EPL]
- MIC [1]: 7.8 µg/mL
- MIC [2]: 54 µg/mL
- MIC [3]: 7.8 µg/mL
- MIC [4]: 27 µg/mL
- MIC [5]: 15.6 µg/mL
